# Results: PMC11721617, “Novel isobavachalcone derivatives induce apoptosis and necroptosis in human non-small cell lung cancer H1975 cells” (Journal of Enzyme Inhibition and Medicinal Chemistry, 2023)
# Where two headings read alike, the source gives them in different places.
# What was measured:
# H1975 = assay: MTT assay, cytotoxic activity / cell viability; format: cell-based, human; details: for viability at 40 µM / IC50: Homo sapiens; for IC50: NCI-H1975
# Experimental: (§1) Four cell lines (H1975, A549, PC9, and Aml-12) were cultured in RPMI 1640 medium containing 10% foetal bovine serum (FBS) and 1% penicillin/streptomycin in an atmosphere with 5% CO2 and 95% relative humidity at 37 °C.
# (§2) Cell viability was examined using the MTT assay. The cells grown in the logarithmic phase were seeded in 96-well plates at a density of 5 × 10^3 per well. The cells were treated with various concentrations (0, 5, 10, 20, 40, and 80 μM) of the compound at different times, respectively. At the end of time point, MTT solution (5 mg/ml) was added to each well and incubated at 37 °C for 4 h. Next, the media was removed, and formazan was dissolved in DMSO. Finally, absorbance was measured with a microplate spectrophotometer at 490 nm (Synergy HT, BioTek, VT, USA).
# A549 = assay: MTT assay, cytotoxic activity; format: cell-based, human; details: A549 cells
# Experimental: as §1, §2
# PC9 = assay: MTT assay, cytotoxic activity; format: cell-based; details: Homo sapiens, PC-9, PC9 cells, 72 h
# Experimental: as §1, §2
# [1] = MTT assay, cytotoxic activity on normal hepatocytes; format: cell-based, mouse; details: Aml-12 cells (normal hepatocytes); normal mouse hepatocytes Aml-12 cells, 72 h
# Experimental: as §1, §2
# Aml-12 cells = assay: as above; format: cell-based, mouse; details: Aml-12 cells relative to H1975 cells
# Experimental: as §1, §2
# H1975 cells [2] = assay: Colony-formation assay; format: cell-based, human; details: 10 days
# Experimental: Cells were seeded at a density of 1.5 × 10^3 cells/well into 6-well plates. When colonies formed, the media was replaced with fresh media at various concentrations of compound 16 (0, 1, 2, and 4 μM) and incubated for 10 days. At the end of the incubation time, the cells were washed three times with PBS, fixed with 4% paraformaldehyde for 15 min, stained with crystal violet solution for 10 min, and photographed.
# H1975 cells [3] = assay: Flow cytometry with Annexin V/PI dual staining; format: cell-based, human; details: 24 h
# Experimental: Cells were seeded (3 × 10^5 per well) in 6-well plates and incubated overnight. After adherence, the cells were treated with various concentrations (0, 10, 20, 40, and 80 μM) of compound 16 for 24 h. Furthermore, the cells were harvested, washed three times with PBS, and stained with Annexin V (FITC Annexin V) and propidium iodide (PI) staining solution for 30 min in the dark. The percentage of cell death was measured by flow cytometry (Becton-Dickinson, Franklin Lakes, NJ, USA).
# H1975 cells [4] = assay: ATP detection; format: cell-based, human; details: H1975, 10, 20, 40, and 80 μM, 6 h
# Experimental: Cells were seeded in 6-well plates at a density of 3 × 10^5 cells/well and incubated with different concentrations (0, 10, 20, 40, and 80 μM) of compound 16 for 6 h. Afterwards, the cells were washed three times with PBS, lysed with RIPA buffer, and the lysates were centrifuged at 12 000 rpm for 5 min. The intracellular ATP levels were measured using a luminoskan luminometer (Thermo Scientific, Atlanta, GA, USA), according to the ATP assay kit’s protocol.
# H1975 cells [5] = assay: Detection of intracellular ROS (DCFH-DA, flow cytometry); format: cell-based, human
# Experimental: Cells were seeded in 6-well plates at a density of 3 × 10^5 cells/well and incubated with different concentrations (0, 10, 20, 40, and 80 μM) of compound 16 or pre-treated with NAC (20 μM) incubated for 6 h, the cells were co-incubated with DCFH-DA for 20 min at 37° C in the dark. Finally, the intracellular ROS levels were measured using flow cytometry (Becton-Dickinson, Franklin Lakes, NJ, USA).
# [6] = test system: Bax, Bcl-2, Akt, Cyt C, caspase-9, caspase-3, RIP1, RIP3, p-RIP3, MLKL, p-MLKL in H1975 cells; assay: Western blotting of apoptosis- and necroptosis-related proteins; format: cell-based, human
# Experimental: Cells were seeded in 100 mm dishes at a density of 3 × 10^6 cells/well and treated with different concentrations (0, 10, 20, 40, and 80 μM) of compound 16. After incubated for 24 h, the cells were harvested, and washed three times with PBS solution. Next, the cells were lysed with RIPA lysis buffer for 30 min on ice. Protein quantification was determined using the BCA protein assay kit. Equal amounts of proteins were separated by sodium dodecyl sulfate-polyacrylamide gel electrophoresis (SDS-PAGE) and transferred to PVDF membrane. The membrane was blocked with 5% non-fat milk and incubated with primary antibodies (Bax, Bcl-2, Akt, Cyt C, Caspase-9, Caspase-3, RIP1, RIP3, p-RIP3, MLKL, p-MLKL, and β-actin) for 2 h at room temperature, followed by the secondary antibodies for 2 h at room temperature. Finally, the blots were detected by a chemiluminescent gel imaging system (Bio-Rad, Hercules, CA, USA).
structure (smiles),measurement,setting,value
"COc1cc(C(c2cc(C(=O)C=Cc3ccc(O)cc3)c(O)c(CC=C(C)C)c2O)N2CCOCC2)cc(OC)c1OC (centres unmarked) [Compound 16, (E)-1-(2,4-Dihydroxy-3-(3-methylbut-2-en-1-yl)-5-(morpholino(3,4,5-trimethoxyphe-nyl)methyl)phenyl)-3-(4-hydroxyphenyl)prop-2-en-1-one]",Effect of NAC on compound 16 induced cell death (cell viability),"H1975; H1975, compound 16 (40 μM) 24 h, pre-treatment with NAC, p < 0.01, Figure 6(F)",protective effect
same,Effect of NSA (MLKL inhibitor) on compound 16 induced necroptosis (cell viability),"H1975; H1975, compound 16 (40 μM) 24 h, pre-treatment with NSA (20 μM), p < 0.01",protective effect
same,Cell viability,"H1975; H1975, compound 16 (40 μM) 24 h with pre-treatment with Nec-1 (20 μM), Figure 4(D)",25.33%
same,viability at 40 µM,"H1975; NCI-H1975, 24 h, H1975, compound 16 (40 μM) alone, 24 h, Figure 3(C)",12.7%
same,viability at 40 µM,"H1975; NCI-H1975, 24 h, H1975, compound 16 (40 μM) alone, 24 h, Figure 4(D)",14.8%
same,viability at 40 µM,"H1975; NCI-H1975, H1975, compound 16 (40 μM) 24 h with pre-treatment with z-VAD-FMK (20 μM), Figure 3(C)",35.4%
same,IC50,"H1975; H1975 cells, 72 h, MTT, read-out: Cytotoxic activity IC50, H1975",4.35 µM
same,IC50,H1975; read-out: IC50 values against H1975 and A549 cell lines (range over both),4.35 to 15 µM
same,Enhancement of cytotoxic effects compared to IBC,A549,1.53 fold
same,IC50,"A549; Homo sapiens, 72 h, MTT",14.2 µM
same,IC50,PC9,16.1 µM
same,IC50 at 72 h,[1],10.1 ± 0.58 µM
same,SI value (selective inhibition),Aml-12 cells,2.32
same,Colony formation rate,"H1975 cells [2]; H1975, 1 μM",51.34%
same,Colony formation rate,"H1975 cells [2]; H1975, 2 μM",27.70%
same,Colony formation rate,"H1975 cells [2]; H1975, 4 μM",14.87%
same,Cell death rate (Annexin V/PI),"H1975 cells [3]; H1975, 10 μM",14.7%
same,Cell death rate (Annexin V/PI),"H1975 cells [3]; H1975, 20 μM",22.7%
same,Cell death rate (Annexin V/PI),"H1975 cells [3]; H1975, 40 μM",34.3%
same,Cell death rate (Annexin V/PI),"H1975 cells [3]; H1975, 80 μM",54.9%
same,Cellular ATP levels,H1975 cells [4],gradually decreased
same,Intracellular ROS level enhancement,"H1975 cells [5]; H1975, 10 μM, 6 h",1.86%
same,Intracellular ROS level enhancement,"H1975 cells [5]; H1975, 20 μM, 6 h",2.21%
same,Intracellular ROS level enhancement,"H1975 cells [5]; H1975, 40 μM, 6 h",3.74%
same,Intracellular ROS level enhancement,"H1975 cells [5]; H1975, 80 μM, 6 h",5.82%
same,Intracellular ROS level enhancement,"H1975 cells [5]; H1975, compound 16 (40 μM) alone, Figure 6(E)",3.75%
same,Intracellular ROS level enhancement,"H1975 cells [5]; H1975, compound 16 (40 μM) in combination with NAC (20 μM), Figure 6(E)",2.02%
same,RIP1 protein levels,"[6]; H1975, 20, 40, and 80 µM",down-regulation
same,Bax and Cyt C expression,"[6]; H1975, 24 h",increasing
same,Bcl-2 and Akt protein levels,"[6]; H1975, 24 h",decreasing
same,Caspase-9 and -3,"[6]; H1975, 24 h",cleaving
same,"Expression of RIP3, p-RIP3, MLKL, and p-MLKL protein levels","[6]; H1975, 24 h",increased
